Experimental findings from patent EP4722212A1, “NOVEL COMPOUND FOR INHIBITING PROTEIN KINASES AND PHARMACEUTICAL COMPOSITION COMPRISING SAME” (Magicbullettherapeutics Co., Ltd., priority 2023, dated 2024) are described below.

One assay concerns the target T1, ACK1 (Homo sapiens, UniProt Q07912).
T1 construct: purchased Reaction Biology (RBC)
As to the kind of experiment: Enzyme activity inhibition (Reaction Biology). Format: biochemical. The procedure: (§1) [* <10 nM: A, <100 nM: B, >100 nM: C]. [Table 7]

A further assay addresses T2, BMX (Homo sapiens, UniProt P51813).
T2 construct: purchased Reaction Biology (RBC)
T2 sequence (P51813 1-675): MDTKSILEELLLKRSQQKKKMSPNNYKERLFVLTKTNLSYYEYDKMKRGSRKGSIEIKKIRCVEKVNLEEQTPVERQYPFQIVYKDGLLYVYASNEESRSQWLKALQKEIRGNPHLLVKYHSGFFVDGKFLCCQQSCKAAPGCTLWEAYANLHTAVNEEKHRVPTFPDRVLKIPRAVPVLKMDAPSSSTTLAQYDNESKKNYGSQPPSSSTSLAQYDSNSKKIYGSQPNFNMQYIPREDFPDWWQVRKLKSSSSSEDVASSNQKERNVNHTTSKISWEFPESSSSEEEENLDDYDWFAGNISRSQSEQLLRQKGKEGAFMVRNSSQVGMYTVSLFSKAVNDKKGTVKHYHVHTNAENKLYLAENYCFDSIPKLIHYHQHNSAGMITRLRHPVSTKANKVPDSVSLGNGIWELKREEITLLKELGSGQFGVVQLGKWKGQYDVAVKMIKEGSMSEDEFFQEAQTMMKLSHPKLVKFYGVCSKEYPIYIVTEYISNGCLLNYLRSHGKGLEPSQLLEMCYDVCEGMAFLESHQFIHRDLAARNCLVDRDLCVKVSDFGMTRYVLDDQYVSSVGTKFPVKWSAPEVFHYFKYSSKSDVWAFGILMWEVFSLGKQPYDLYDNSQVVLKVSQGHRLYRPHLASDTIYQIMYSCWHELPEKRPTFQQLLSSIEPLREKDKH
Briefly: Enzyme activity inhibition (Reaction Biology). Format: biochemical. The procedure:
as §1

For another assay, the target named is T3, Src (Homo sapiens, UniProt P12931).
T3 construct: purchased Reaction Biology (RBC)
Briefly: Enzyme activity inhibition (Reaction Biology). Format: biochemical. As to the method:
as §1

The next assay has as its system A172. Briefly: Cell line inhibition analysis (CCK-8, 72 h). To be noted: Homo sapiens, A 172; read-out: Cell growth inhibition GI50 A172. Format: cell-based. The procedure:
(§2) C4-2B and 22Rv1 cells were purchased from ATCC and cultured according to the manufacturer's instructions. The cells were seeded in 96-well plates at 7×10^3cells/100 µl/well and allowed to attach for one day. After removing the culture medium, 90 µl/well of fresh culture medium was added, followed by addition of 10 µl/well of culture medium containing compounds at nine concentrations (0.076-500 µM) serially diluted 3-fold and DMSO control to achieve final concentrations of 0-50 µM, and then cultured for 72 hours in a 37 °C CO2 incubator. Cell proliferation after 72 hours was assessed by adding 10 µl/well of CCK-8 solution, orbital shaking for 30 seconds, then incubating at 37 °C CO2 incubator for 2 hours and measuring absorbance at 450 nm using a microplate reader. The measured absorbance values were corrected by subtracting the absorbance of wells containing only culture medium and CCK-8 solution, and GI50 values were calculated using GraphPad Prism 8 software.
(§3) Meanwhile, in a separate 96-well plate, cells were seeded at 7 × 10^3 cells/100 µl/well, allowed to attach for one day, CCK-8 solution was added, and absorbance was measured to establish the 'Growth (%) = 0' value.
(§4) Furthermore, experiments were conducted on A172, A549, HCI-H460, AsPC-1, MIA-Paca-2, DLD-1, HCT-116, HT-29, SW480, SW620, MDA-MB-231, and SKOV3 cell lines using the same method, with results shown in Tables 9 and 10 below [* <1 µM: A, <5 µM: B, <10 µM: C, >10 µM: D].

A further assay deals with A549. Briefly: Cell line inhibition analysis (CCK-8, 72 h). Format: cell-based. To be noted: Homo sapiens, read-out: Cell growth inhibition GI50 A549. The procedure: as §2, §3, §4
In the next assay the test system is AsPC-1. Briefly: Cell line inhibition analysis (CCK-8, 72 h). Format: cell-based. To be noted: Homo sapiens, ASPC1; read-out: Cell growth inhibition GI50 AsPC-1. As to the method: as §2, §3, §4
The subject of a further assay is DLD-1. Briefly: Cell line inhibition analysis (CCK-8, 72 h). Format: cell-based. To be noted: Homo sapiens, read-out: Cell growth inhibition GI50 DLD-1. The procedure:
as §2, §3, §4

The test system of a further assay is HCI-H460. As to the kind of experiment: Cell line inhibition analysis (CCK-8, 72 h). Format: cell-based. To be noted: read-out: Cell growth inhibition GI50 HCI-H460. The procedure: as §2, §3, §4
A further assay concerns HCT-116. Briefly: Cell line inhibition analysis (CCK-8, 72 h). Format: cell-based. To be noted: Homo sapiens, read-out: Cell growth inhibition GI50 HCT-116. The procedure: as §2, §3, §4
The subject of another assay is HT-29. As to the kind of experiment: Cell line inhibition analysis (CCK-8, 72 h). Format: cell-based. Conditions: Homo sapiens, read-out: Cell growth inhibition GI50 HT-29. As to the method:
as §2, §3, §4

The subject of a further assay is MDA-MB-231. As to the kind of experiment: Cell line inhibition analysis (CCK-8, 72 h). Format: cell-based. To be noted: Homo sapiens, read-out: Cell growth inhibition GI50 MDA-MB-231. As to the method:
as §2, §3, §4

For the next assay, the system named is MIA-Paca-2. As to the kind of experiment: Cell line inhibition analysis (CCK-8, 72 h). Format: cell-based. Conditions: Homo sapiens, read-out: Cell growth inhibition GI50 MIA-Paca-2. As to the method:
as §2, §3, §4

A further assay deals with SKOV3. As to the kind of experiment: Cell line inhibition analysis (CCK-8, 72 h). Format: cell-based. To be noted: Homo sapiens, SK-OV-3; read-out: Cell growth inhibition GI50 SKOV3. As to the method: as §2, §3, §4
The next assay concerns SW480. Briefly: Cell line inhibition analysis (CCK-8, 72 h). Format: cell-based. To be noted: Homo sapiens, read-out: Cell growth inhibition GI50 SW480. The procedure:
as §2, §3, §4

The test system of a further assay is SW620. Briefly: Cell line inhibition analysis (CCK-8, 72 h). Format: cell-based. To be noted: Homo sapiens, SW-620; read-out: Cell growth inhibition GI50 SW620. The procedure: as §2, §3, §4
A further assay has as its target CDK6/CYCLIN D2 (Homo sapiens, UniProt Q00534). As to the kind of experiment: Kinase panel. Format: biochemical. Conditions: CDK6/CYCLIN D2, 1 µM; read-out: residual enzyme activity. Put shortly:
(§5)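 Single-point screen at 1 µM in a biochemical kinase panel; readout is % residual enzyme activity; hit cut-off ≤40% remaining (≥60% inhibited).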

In the next assay the target is TNIK (Homo sapiens, UniProt Q9UKE5). As to the kind of experiment: Kinase panel. Format: biochemical. To be noted: read-out: residual enzyme activity. In outline: as §5
In the next assay the target is CDK19/cyclin C (Homo sapiens, UniProt Q9BWU1). As to the kind of experiment: Kinase panel. Format: biochemical. Conditions: read-out: residual enzyme activity. In outline:
as §5

In a further assay the target is DLK/MAP3K12 (Homo sapiens, UniProt Q12852). Briefly: Kinase panel. Format: biochemical. To be noted: DLK/MAP3K12, 1 µM; read-out: residual enzyme activity. In outline:
as §5

The target in a further assay is RIPK3 (Homo sapiens, UniProt Q9Y572). As to the kind of experiment: Kinase panel. Format: biochemical. To be noted: RIPK3, 1 µM; read-out: residual enzyme activity. Put shortly:
as §5

T3 sequence (P12931 whole entry): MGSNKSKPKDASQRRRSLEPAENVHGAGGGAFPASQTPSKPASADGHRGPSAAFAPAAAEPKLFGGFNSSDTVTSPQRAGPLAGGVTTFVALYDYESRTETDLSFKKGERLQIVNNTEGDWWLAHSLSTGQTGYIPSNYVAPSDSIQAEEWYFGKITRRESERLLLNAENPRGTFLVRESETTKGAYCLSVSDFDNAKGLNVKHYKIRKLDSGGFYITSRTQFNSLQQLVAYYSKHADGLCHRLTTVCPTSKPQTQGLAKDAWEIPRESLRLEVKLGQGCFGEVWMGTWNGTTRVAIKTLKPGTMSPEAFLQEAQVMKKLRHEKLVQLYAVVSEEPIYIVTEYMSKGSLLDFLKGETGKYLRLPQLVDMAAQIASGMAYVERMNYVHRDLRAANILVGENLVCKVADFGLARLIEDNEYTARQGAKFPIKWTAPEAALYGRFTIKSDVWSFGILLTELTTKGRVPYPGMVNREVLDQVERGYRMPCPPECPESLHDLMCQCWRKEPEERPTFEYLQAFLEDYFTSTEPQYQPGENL
T1 sequence (Q07912 whole entry): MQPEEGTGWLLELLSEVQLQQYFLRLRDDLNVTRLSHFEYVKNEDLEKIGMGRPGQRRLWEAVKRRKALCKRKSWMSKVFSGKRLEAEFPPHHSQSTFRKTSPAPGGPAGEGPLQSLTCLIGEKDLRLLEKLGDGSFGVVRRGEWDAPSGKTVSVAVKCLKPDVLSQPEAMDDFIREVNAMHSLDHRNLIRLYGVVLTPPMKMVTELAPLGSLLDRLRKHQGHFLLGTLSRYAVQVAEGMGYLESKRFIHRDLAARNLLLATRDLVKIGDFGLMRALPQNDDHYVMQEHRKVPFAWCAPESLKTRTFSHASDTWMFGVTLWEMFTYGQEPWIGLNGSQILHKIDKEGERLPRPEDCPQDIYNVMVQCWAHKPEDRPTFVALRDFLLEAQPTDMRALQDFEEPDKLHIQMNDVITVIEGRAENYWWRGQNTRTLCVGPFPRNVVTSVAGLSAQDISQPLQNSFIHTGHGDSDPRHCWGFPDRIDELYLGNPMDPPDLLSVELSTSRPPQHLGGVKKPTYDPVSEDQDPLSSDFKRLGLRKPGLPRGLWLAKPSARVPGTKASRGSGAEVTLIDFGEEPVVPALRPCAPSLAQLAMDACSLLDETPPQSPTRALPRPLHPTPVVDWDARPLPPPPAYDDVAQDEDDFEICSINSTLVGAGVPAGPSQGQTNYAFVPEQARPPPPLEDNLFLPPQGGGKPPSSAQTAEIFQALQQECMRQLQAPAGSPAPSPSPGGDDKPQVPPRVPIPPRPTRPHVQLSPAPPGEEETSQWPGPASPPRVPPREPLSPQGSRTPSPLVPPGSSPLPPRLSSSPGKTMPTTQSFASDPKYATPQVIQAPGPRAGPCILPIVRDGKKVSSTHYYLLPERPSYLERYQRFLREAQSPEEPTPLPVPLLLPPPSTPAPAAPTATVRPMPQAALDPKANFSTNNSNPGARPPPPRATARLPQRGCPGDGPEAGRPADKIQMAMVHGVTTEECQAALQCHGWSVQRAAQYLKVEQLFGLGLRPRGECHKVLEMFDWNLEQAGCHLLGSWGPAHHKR
Chain of TNIK (Q9UKE5 whole entry, species assumed): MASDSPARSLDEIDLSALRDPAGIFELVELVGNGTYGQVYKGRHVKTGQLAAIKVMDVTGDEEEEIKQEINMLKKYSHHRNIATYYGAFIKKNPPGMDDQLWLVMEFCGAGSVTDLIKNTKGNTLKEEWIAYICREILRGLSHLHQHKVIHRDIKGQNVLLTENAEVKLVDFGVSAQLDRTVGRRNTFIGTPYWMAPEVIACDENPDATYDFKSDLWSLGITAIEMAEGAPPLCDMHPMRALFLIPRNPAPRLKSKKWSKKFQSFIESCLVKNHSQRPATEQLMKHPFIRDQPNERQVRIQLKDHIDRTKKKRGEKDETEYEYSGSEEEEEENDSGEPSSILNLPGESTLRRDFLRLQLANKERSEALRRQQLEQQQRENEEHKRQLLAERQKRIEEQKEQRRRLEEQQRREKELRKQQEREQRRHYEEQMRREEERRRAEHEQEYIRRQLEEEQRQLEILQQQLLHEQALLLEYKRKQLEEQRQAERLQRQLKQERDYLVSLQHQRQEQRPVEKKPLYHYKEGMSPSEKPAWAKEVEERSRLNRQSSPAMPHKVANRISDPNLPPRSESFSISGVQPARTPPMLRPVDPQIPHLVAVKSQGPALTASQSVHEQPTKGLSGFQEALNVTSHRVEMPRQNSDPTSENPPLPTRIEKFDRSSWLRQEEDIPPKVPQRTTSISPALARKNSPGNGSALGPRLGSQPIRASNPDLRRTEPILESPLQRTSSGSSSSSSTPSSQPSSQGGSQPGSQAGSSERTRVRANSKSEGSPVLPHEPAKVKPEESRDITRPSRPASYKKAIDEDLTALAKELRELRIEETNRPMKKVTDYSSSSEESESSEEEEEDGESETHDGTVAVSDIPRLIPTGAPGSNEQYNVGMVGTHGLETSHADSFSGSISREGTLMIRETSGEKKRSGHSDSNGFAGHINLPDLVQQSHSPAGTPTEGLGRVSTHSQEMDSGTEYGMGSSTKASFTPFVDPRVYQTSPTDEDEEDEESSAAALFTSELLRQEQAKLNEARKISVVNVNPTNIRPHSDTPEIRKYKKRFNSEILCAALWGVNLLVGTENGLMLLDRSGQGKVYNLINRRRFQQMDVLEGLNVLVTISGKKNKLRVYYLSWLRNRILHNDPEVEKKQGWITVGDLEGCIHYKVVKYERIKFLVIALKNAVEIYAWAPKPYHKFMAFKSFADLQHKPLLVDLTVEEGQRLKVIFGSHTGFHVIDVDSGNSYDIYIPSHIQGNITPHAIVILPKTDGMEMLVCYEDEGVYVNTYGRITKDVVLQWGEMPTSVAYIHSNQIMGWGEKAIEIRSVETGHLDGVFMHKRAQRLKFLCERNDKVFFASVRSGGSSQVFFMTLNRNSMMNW
Chain of CDK6/CYCLIN D2 (Q00534 whole entry, species assumed): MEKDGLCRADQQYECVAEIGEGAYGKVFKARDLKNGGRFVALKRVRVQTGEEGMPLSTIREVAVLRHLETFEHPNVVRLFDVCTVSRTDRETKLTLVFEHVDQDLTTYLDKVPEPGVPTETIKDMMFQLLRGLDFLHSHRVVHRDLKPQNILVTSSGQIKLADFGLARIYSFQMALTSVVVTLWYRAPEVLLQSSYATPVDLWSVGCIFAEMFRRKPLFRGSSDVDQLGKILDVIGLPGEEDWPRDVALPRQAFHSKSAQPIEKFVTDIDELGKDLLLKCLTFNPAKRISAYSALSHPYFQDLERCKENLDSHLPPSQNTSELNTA
Chain of CDK6/CYCLIN D2 (P30279 whole entry partner, species assumed): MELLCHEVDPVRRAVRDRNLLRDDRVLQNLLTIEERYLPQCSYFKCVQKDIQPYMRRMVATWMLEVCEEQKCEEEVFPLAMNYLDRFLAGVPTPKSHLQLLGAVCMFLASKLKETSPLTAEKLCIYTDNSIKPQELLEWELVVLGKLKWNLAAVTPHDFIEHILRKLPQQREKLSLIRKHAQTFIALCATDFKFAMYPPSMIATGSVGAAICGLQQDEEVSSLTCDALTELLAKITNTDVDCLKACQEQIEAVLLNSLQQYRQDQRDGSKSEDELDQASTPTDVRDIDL
Chain of DLK/MAP3K12 (Q12852 whole entry): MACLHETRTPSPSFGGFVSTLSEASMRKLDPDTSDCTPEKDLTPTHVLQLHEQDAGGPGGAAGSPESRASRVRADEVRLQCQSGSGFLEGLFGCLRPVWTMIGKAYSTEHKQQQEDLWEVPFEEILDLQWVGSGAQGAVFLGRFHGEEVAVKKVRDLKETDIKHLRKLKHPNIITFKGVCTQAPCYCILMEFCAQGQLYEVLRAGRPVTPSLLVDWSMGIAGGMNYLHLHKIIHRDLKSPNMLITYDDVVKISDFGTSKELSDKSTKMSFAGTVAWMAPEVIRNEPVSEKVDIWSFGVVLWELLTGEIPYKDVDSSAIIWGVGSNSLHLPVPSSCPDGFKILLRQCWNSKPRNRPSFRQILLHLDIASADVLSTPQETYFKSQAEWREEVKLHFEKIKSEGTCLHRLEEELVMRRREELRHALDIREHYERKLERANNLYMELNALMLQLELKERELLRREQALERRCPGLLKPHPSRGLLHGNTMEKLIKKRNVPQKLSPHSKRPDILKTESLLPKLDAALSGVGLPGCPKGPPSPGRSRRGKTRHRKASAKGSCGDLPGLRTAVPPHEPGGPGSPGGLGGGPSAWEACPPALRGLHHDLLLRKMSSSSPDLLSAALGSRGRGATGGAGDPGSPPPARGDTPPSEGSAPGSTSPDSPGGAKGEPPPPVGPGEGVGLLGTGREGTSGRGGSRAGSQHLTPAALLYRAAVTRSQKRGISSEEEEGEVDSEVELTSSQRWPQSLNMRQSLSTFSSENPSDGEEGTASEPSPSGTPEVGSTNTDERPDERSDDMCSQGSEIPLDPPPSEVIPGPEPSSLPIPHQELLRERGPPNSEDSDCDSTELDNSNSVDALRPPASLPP
Chain of RIPK3 (Q9Y572 whole entry, species assumed): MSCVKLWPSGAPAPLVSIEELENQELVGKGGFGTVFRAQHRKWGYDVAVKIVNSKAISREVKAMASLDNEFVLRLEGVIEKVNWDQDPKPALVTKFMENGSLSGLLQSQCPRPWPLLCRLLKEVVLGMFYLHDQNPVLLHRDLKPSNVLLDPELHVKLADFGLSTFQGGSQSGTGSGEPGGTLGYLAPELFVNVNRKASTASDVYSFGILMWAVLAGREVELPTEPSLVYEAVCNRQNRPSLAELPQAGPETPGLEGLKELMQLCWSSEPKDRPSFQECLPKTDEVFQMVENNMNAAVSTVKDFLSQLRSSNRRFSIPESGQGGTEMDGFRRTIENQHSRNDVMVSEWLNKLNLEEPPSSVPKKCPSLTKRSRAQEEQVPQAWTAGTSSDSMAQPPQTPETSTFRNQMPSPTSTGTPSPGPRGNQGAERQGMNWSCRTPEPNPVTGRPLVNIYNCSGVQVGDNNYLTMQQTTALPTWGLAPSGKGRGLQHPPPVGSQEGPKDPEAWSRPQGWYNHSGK

In the case of `Cc1cn(-c2cc(C(=O)Nc3ccc(C)c(N4Cc5cnc(NC6CC6)nc5C5(CC5)C4=O)c3)cc(C(F)(F)F)c2)cn1` [Compound 8, N-(3-(2'-(cyclopropylamino)-7'-oxo-5'H-spiro[cyclopropane-1,8'-pyrido[4,3-d]pyrimidine]-6'(7'H)-yl)-4-methylphenyl)-3-(4-methyl-1H-imidazol-1-yl)-5-(trifluoromethyl)benzamide], the values for the IC50 at ACK1, at BMX and against Src were below 0.01 µM, below 0.01 µM and 0.01 to 0.1 µM, respectively. For the same compound, the GI50 (commonly the concentration giving 50% growth inhibition) was below 1 µM with A172; above 10 µM with A549; 1 to 5 µM in the assay on AsPC-1; 1 to 5 µM with DLD-1; 1 to 5 µM in the assay on HCI-H460; below 1 µM in the assay with HCT-116. Moreover, the GI50 was above 10 µM in the assay on HT-29; 1 to 5 µM in the assay on MDA-MB-231; below 1 µM in the assay with MIA-Paca-2; 1 to 5 µM in the assay with SKOV3; 1 to 5 µM in the assay on SW480; 1 to 5 µM in the assay with SW620. In addition, the remaining activity at 1 µM is above 40% at CDK6/CYCLIN D2 and at most 40% at TNIK.

In the case of `Cc1ccc(Nc2ncc3c(n2)C2(CC2)C(=O)N(c2cc(NC(=O)c4cccc(C(F)(F)F)c4)ccc2C)C3)cn1` [Compound 51, N-(4-methyl-3-(2'-((6-methylpyridin-3-yl)amino)-7'-oxo-5'H-spiro[cyclopropane-1,8'-pyrido[4,3-d]pyrimidine]-6'(7'H)-yl)phenyl)-3-(trifluoromethyl)benzamide], the IC50 – broadly, the midpoint of a concentration-inhibition curve – is 0.01 to 0.1 µM against ACK1, below 0.01 µM against BMX and below 0.01 µM against Src. The GI50 in the assay on A172 is below 1 µM; in the assay on A549 it was 1 to 5 µM; with AsPC-1 it was below 1 µM; in the assay with DLD-1 it was 1 to 5 µM; in the assay with HCI-H460, below 1 µM; in the assay with HCT-116, below 1 µM. Moreover, the GI50 was 1 to 5 µM in the assay with HT-29; below 1 µM with MDA-MB-231; below 1 µM in the assay on MIA-Paca-2; below 1 µM in the assay on SKOV3; below 1 µM in the assay with SW480; 1 to 5 µM in the assay on SW620. In addition, the remaining activity at 1 µM is above 40% at CDK19/cyclin C, above 40% on DLK/MAP3K12, at most 40% at RIPK3 and at most 40% at TNIK.
